Experimental data from patent US10617734B2, “STAT3 and ERK signal pathway inhibitor comprising mogrosides and analogs thereof” (BEIJING UNIVERSITY OF AGRICULTURE, priority 2014, dated 2020).

Legend:
[1] = tested on: lymphoma U937 cells, human melanoma A875 cells and leukemia cells K562; test: Tests of examples 3 to 8 taken together; format: cell-based; settings: Western Blotting, cell cycle, apoptosis, Hoechst, MTT
[2] = tested on: prostate cancer cells, renal carcinoma cells, head and neck squamous cell carcinoma cells, lung cancer cells, ovarian cancer cells, breast cancer cells …; test: Tests of examples 3 to 8 on further cancer cells; format: cell-based; settings: pancreatic, liver and colon cancer cells

Molecule | results of the tests of examples 3 to 8 [1] | results of the tests of examples 3 to 8 on further cancer cells [2]
C[C@H](CC[C@@H](O[C@@H]1O[C@H](CO[C@@H]2O[C@H](CO)[C@@H](O)[C@H](O)[C@H]2O)[C@@H](O)[C@H](O)[C@H]1O[C@@H]1O[C@H](CO)[C@@H](O)[C@H](O)[C@H]1O)C(C)(C)O)[C@H]1CC[C@@]2(C)[C@H]3CC=C4[C@H](CC[C@H](O[C@@H]5O[C@H](CO[C@@H]6O[C@H](CO)[C@@H](O)[C@H](O)[C@H]6O)[C@@H](O)[C@H](O)[C@H]5O[C@@H]5O[C@H](CO)[C@@H](O)[C@H](O)[C@H]5O)C4(C)C)[C@]3(C)[C@H](O)C[C@]12C [Mogroside VI] | identical to those of Mogrol I E1 and Mogrol II A2 | identical to the results of the lymphoma U937 cells
C[C@H](CC[C@@H](O[C@@H]1O[C@H](CO[C@@H]2O[C@H](CO)[C@@H](O)[C@H](O)[C@H]2O)[C@@H](O)[C@H](O)[C@H]1O[C@@H]1O[C@H](CO)[C@@H](O)[C@H](O)[C@H]1O)C(C)(C)O)[C@H]1CC[C@@]2(C)[C@@H]3CC=C4[C@@H](CC[C@H](O[C@@H]5O[C@H](CO[C@@H]6O[C@H](CO)[C@@H](O)[C@H](O)[C@H]6O)[C@@H](O)[C@H](O)[C@H]5O)C4(C)C)[C@]3(C)[C@H](O)C[C@]12C [Mogroside V] | identical to those of Mogrol I E1 and Mogrol II A2 | identical to the results of the lymphoma U937 cells
Mogrol III | identical to those of Mogrol I E1 and Mogrol II A2 | identical to the results of the lymphoma U937 cells
Mogrol IV | identical to those of Mogrol I E1 and Mogrol II A2 | identical to the results of the lymphoma U937 cells
